Source: patent US8354569B2, “Plant acyltransferases specific for long-chained, multiply unsaturated fatty acids” (University of Bristol, priority 2003, dated 2013)

What was measured:
Shewanella LPAAT = assay: Functional expression of Shewanella LPAAT in E. coli, enzyme assays; format: biochemical, Shewanella hanedai; conditions: expressed at 10° C. in E. coli BL21, with or without His-tag; 30 μM thioester
Description: To clone an LPAAT gene from the prokaryotic organism Shewanella, the genomic DNA from Shewanella hanedai was isolated, partially digested with Sau3a and ligated into the vector pUC18. This genomic library was screened for LPAAT genes by a PCR using different primer combinations. This method has made it possible to identify a 1486 by clone whose open reading frame codes for a 25.2 kDa LPAAT protein. The ShLPAAT sequence was introduced into the vector pQE70 (Qiagen) in accordance with the manufacturer's instructions. The resulting plasmids pQE70-Sh and pQE70-ShHis and the blank vector pQE70 were transformed into E. coli BL21 cells and expressed at 10° C. (FIG. 22A). Active protein was obtained at this temperature only (FIG. 22B). The membrane fractions were used for this purpose in the further experiments. […] The high incorporation rate with regard to PUFA acyl-CoA residues is required for the use for the production of PUFA.
The assays were carried out with extracts (1 μg) from E. coli comprising the blank vector (pQE70) or a Shewanella construct without (pQE-Sh) or with His-Tag sequence at the 3′ end (pQE-ShHis) in the presence of 30 μM 1-oleoyl[U-14C]glycerol-3-phosphate and 30 μM of the detailed thioesters.

Thraustochytrium LPAAT = assay: Acyl-CoA specificity of Thraustochytrium LPAAT expressed as GST fusion protein in E. coli; format: biochemical; conditions: 0.4 μg soluble protein fraction, 30 μM 1-oleoyl[U-14C]glycerol-3-phosphate, increasing thioester concentrations
Description: The PCR product was transferred into the vector pDONOR221 by Gateway reaction (BP reaction; Invitrogen) following the manufacturer's instructions, and the sequence was verified by sequencing. In a next step, the ThLPAAT sequence was then transferred into the vector pDES15 by the LR reaction and employed for expression in E. coli BL21 cells. The ThLPAAT sequence was attached to the open reading frame of the glutathione-S transferase (GST) encoded in the plasmid, in accordance with the manufacturer's instructions. This gave rise to a fusion protein of GST and ThLPAAT.
Expressed protein was detected after expression under standard conditions in E. coli (FIG. 21A) and purified via a glutathione column.
The enzyme assays were determined using 0.4 μg of soluble protein fraction in the presence of 100 mM Tricine-NaOH (pH 8.2), 30 μM 1-oleoyl[U-^14C]glycerol-3-phosphate and increasing concentrations of the thioesters detailed.

LPCAT [1] = assay: LPCAT acyl-CoA substrate specificity, sunflower microsomal membranes; format: biochemical
Description: (§1) All the procedures were carried out at 4° C. The cotyledons of maturing sunflower seeds and linseed were harvested approximately 10 days after anthesis and suspended in 0.1 M sodium phosphate buffer (pH 7.2), comprising 0.33 M sucrose and 0.1% BSA (free from fatty acids). After comminution in a glass homogenizer, the homogenate was centrifuged for 30 minutes at 20 000×g. The supernatant was filtered through one layer of Miracloth and centrifuged for 90 minutes in an ultracentrifuge at 100 000×g. The pelleted microsomal membranes were washed with 0.1 M sodium phosphate buffer (pH 7.2) and resuspended in a small volume of buffer, using a glass homogenizer. The microsomal membrane preparations were either immediately processed or stored at −80° C.
(§2) LPCAT activity was determined in a continuous spectraphotometric assay in which 5,5-dithiobis-2-nitrobenzoate (DTNB) was used, and the change in absorption at 409 nm and 25° C. was monitored. The assay comprised sn-1-palmitolysophosphatidylcholine (30 nmol) as acyl acceptor, DTNB (50 nmol) and 20 nmol of one of the following acyl-CoAs: myristoyl-CoA (14:0-CoA), palmitoyl-CoA (16:0-CoA), palmitoleoyl-CoA (16:1-CoA), stearoyl-CoA (18:0-CoA), oleoyl-CoA (18:1-CoA), linoleoyl-CoA (18:2-CoA), dihomo-gamma-linolenyl-CoA (20:3-CoA) or arachidonyl-CoA (20:4-CoA) in 1 ml of 0.1 M phosphate buffer, pH 7.2. The reaction was started by addition of microsomal membrane preparation. The amount of microsomal membrane preparation added was 5 μg (Mortierella and sunflower) or 30 μg (linseed).

LPAAT [2] = assay: LPAAT acyl-CoA substrate specificity, linseed microsomal membranes; format: biochemical
Description: as §1
(§3) The specificity of the LPAAT was studied in order to verify whether the enzyme has a preference for certain acyl-CoAs, in particular to determine whether the LPAAT from oil seed plants converts LCPUFA-CoAs. […] The assay comprised sn-1-oleoyl-lysophosphatidic acid (30 nmol), DTNB (50 nmol) and 20 nmol of one of the following acyl-CoAs: palmitoyl-CoA (16:0-CoA), stearoyl-CoA (18:0-CoA), oleoyl-CoA (18:1-CoA), linoleoyl-CoA (18:2-CoA), dihomo-gamma-linolenyl-CoA (20:3-CoA) or arachidonyl-CoA (20:4-CoA) in 1 ml of 0.1 M phosphate buffer, pH 7.2. […] Microsomal membranes (equivalent to 10 μg of protein in the case of Mortierella and 40 μg of protein in the case of sunflower and linseed) were added to the reaction mixture in order to start the reaction.

LPAAT [3] = assay: LPAAT acyl-CoA substrate specificity, sunflower microsomal membranes; format: biochemical
Description: as §1, §3

GPAT [4] = assay: GPAT acyl-CoA substrate specificity, sunflower microsomal membranes; format: biochemical
Description: as §1
(§4) The specificity of the GPAT was studied to verify whether the enzyme has a preference for certain acyl-CoAs, in particular to determine whether the GPAT from oil seed plants converts LCPUFA-CoAs. Microsomal membranes were incubated with 0.5 mM (Mortierella) or 0.2 mM (sunflower and linseed) of one of the following acyl-CoAs: myristoyl-CoA (14:0-CoA), palmitoyl-CoA (16:0-CoA), palmitoleoyl-CoA (16:1-CoA), stearoyl-CoA (18:0-CoA), oleoyl-CoA (18:1-CoA), linoleoyl-CoA (18:2-CoA), dihomo-gamma-linolenoyl-CoA (20:3-CoA) or arachidonyl-CoA (20:4-CoA) and 5 mM [^14C] G3P. Microsomal membranes (equivalent to 50 μg of protein in the case of sunflower and Mortierella and 150 μg of protein in the case of linseed) were added to the reaction mixture in order to start the reaction. After incubation for 5 minutes, the lipids were extracted by the method of Bligh & Dyer, and the radioactivity incorporated in complex lipids was determined.

GPAT [5] = assay: GPAT acyl-CoA substrate specificity, linseed microsomal membranes; format: biochemical
Description: as §1, §4

GPAT [6] = assay: GPAT acyl-CoA substrate specificity, Mortierella microsomal membranes; format: biochemical, Mortierella alpina
Description: (§5) Mortierella cultures were harvested after 5 days and placed on ice. All further procedures were carried out at 4° C. The mycelium was suspended in 0.1 M sodium phosphate buffer (pH 7.2), comprising 0.33 M sucrose, 0.1% BSA (free from fatty acids), 1000 units of catalase/ml and 1 mM Pefabloc. The following steps were carried out as described under “preparations of microsomal membranes from cotyledons of maturing seeds of sunflower and linseed”.
as §4

LPCAT [7] = assay: LPCAT acyl-CoA substrate specificity, linseed microsomal membranes; format: biochemical
Description: as §1, §2

LPCAT [8] = assay: LPCAT acyl-CoA substrate specificity, Mortierella microsomal membranes; format: biochemical, Mortierella alpina
Description: as §5, §2

LPAAT [9] = assay: LPAAT acyl-CoA substrate specificity, Mortierella microsomal membranes; format: biochemical, Mortierella alpina
Description: as §5, §3

[10] = 20 nmol acyl-CoA, sn-1-palmitolysophosphatidylcholine, DTNB assay
[11] = 20 nmol acyl-CoA, sn-1-oleoyl-lysophosphatidic acid, DTNB assay
[12] = 0.2 mM acyl-CoA, 5 mM [14C] G3P, 5 minutes

With `CC/C=C\C/C=C\C/C=C\C/C=C\C/C=C\C/C=C\CCC(=O)SCCNC(=O)CCNC(=O)[C@H](O)C(C)(C)COP(=O)(O)OP(=O)(O)OC[C@H]1O[C@@H](n2cnc3c(N)ncnc32)[C@H](O)[C@@H]1OP(=O)(O)O` [DHA-CoA] the “Incorporation activity of the membrane fraction” value (Shewanella LPAAT) was “high level of activity” and the “LPAAT activity of the purified GST fusion protein by acyl-CoA” value (Thraustochytrium LPAAT) was “highest activity”.

For `CCCCCCCC/C=C\CCCCCCCC(=O)SCCNC(=O)CCNC(=O)[C@H](O)C(C)(C)COP(=O)(O)OP(=O)(O)OC[C@H]1O[C@@H](n2cnc3c(N)ncnc32)[C@H](O)[C@@H]1OP(=O)(O)O` [Oleoyl-CoA, oleoyl-CoA], the “Rate of the incorporation of oleic acid” value (LPCAT [1]) was 360 nmol/min/mg protein, the “Percentage incorporation in comparison with the incorporation of oleic acid” value (shortened to “Percentage incorporation in comparison”) (LPCAT [1]; [10]) was 100% and the “Rate of the incorporation of oleic acid” value (LPAAT [2]) was 25 nmol/min/mg protein. The “Percentage incorporation in comparison” value (LPAAT [2]; [11]) was 100%, the “Rate of the incorporation of oleic acid” value (LPAAT [3]) was 28 nmol/min/mg protein and the “Percentage incorporation in comparison” value (LPAAT [3]; [11]) was 100%. For the same compound, the “Rate of the incorporation of oleic acid” value (GPAT [4]) was 13 nmol/min/mg protein, the “Percentage incorporation in comparison” value (GPAT [4]; [12]) was 100% and the “Rate of the incorporation of oleic acid” value (GPAT [5]) was 6 nmol/min/mg protein. The “Percentage incorporation in comparison” value (GPAT [5]; [12]) was 100%, the “Percentage incorporation in comparison” value (GPAT [6]; Mortierella GPAT, 0.5 mM acyl-CoA, 5 mM [14C] G3P, 5 minutes) was 100% and the “Rate of the incorporation of oleic acid” value (GPAT [6]; Mortierella alpina GPAT) was 30 nmol/min/mg protein. The “LPCAT activity (in words)” value (LPCAT [7]) was “converted equally efficiently”, the “Rate of the incorporation of oleic acid” value (LPCAT [7]) was 9 nmol/min/mg protein and the “Percentage incorporation in comparison” value (LPCAT [7]; [10]) was 100%. For the same compound, the “Percentage incorporation in comparison” value (LPCAT [8]; Mortierella LPCAT, 20 nmol acyl-CoA, sn-1-palmitolysophosphatidylcholine, DTNB assay) was 100%, the “Rate of the incorporation of oleic acid” value (LPCAT [8]; Mortierella alpina LPCAT) was 350 nmol/min/mg protein and the “Percentage incorporation in comparison” value (LPAAT [9]; Mortierella LPAAT, 20 nmol acyl-CoA, sn-1-oleoyl-lysophosphatidic acid, DTNB assay) was 100%. The “Rate of the incorporation of oleic acid” value (LPAAT [9]; Mortierella alpina LPAAT) was 51 nmol/min/mg protein.
